Structures are written as SMILES.

This assay has as its target T1, Recombinant human GR (Homo sapiens, UniProt P04150).
T1 construct: purchased Invitrogen P2816
T1 sequence (P04150 1-777): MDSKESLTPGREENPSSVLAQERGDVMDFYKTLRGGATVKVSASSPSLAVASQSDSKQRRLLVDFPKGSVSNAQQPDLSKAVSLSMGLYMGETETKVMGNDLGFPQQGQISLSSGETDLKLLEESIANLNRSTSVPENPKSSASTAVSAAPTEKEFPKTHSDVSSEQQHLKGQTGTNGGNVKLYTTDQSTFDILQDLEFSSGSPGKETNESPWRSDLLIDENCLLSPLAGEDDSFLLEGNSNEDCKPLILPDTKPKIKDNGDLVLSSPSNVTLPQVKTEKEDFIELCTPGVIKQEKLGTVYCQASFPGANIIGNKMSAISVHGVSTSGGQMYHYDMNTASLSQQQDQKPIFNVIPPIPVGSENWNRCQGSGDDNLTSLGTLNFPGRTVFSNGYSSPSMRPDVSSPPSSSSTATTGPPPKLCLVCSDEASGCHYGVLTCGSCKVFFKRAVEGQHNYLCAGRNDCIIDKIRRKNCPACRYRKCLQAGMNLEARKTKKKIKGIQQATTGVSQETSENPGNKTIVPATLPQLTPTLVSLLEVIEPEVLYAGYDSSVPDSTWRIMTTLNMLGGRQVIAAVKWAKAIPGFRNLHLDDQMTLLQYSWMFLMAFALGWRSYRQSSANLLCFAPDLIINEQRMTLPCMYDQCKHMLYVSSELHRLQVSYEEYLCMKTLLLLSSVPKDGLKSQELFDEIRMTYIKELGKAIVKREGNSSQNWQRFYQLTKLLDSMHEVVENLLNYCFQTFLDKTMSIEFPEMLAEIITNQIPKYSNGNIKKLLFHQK
Briefly: GR competitor assay (receptor competitor assay by fluorescence polarization, Invitrogen kit P2816). The conditions noted are these: 20 μM test compound solution (10 μL per well plus 5 μL 4×GS1 and 5 μL 4×GR); relative to 2 mM dexamethasone positive control; ratios of 100% or more are indicated by 100%; read-out: GR Binding ratio (%). The method, then: In order to evaluate a binding activity to GR, a receptor competitor assay was carried out by a fluorescence polarization method. In the assay, a GR competitor assay kit (manufactured by Invitrogen, cat No. P2816) was used, and a procedure was carried out according to the protocol attached to the kit. Hereinafter, the specific method will be described.
GR screening buffer: A buffer containing 10 mM potassium phosphate (pH 7.4), 20 mM sodium molybdate (Na2MoO4), 0.1 mM ethylene diamine tetraacetic acid (EDTA), 5 mM dithiothreitol (DTT), 0.1 mM stabilizing peptide and 2% dimethylsulfoxide was prepared.
4×GS1 solution: Fluormone™ GS1, which is a fluorescent glucocorticoid ligand, was diluted with GR screening buffer, whereby a 4 nM solution was prepared.
4×GR solution: Recombinant human GR was diluted with GR screening buffer, whereby a 16 nM solution was prepared.
After a test compound was dissolved in dimethylsulfoxide, the resulting solution was diluted with GR screening buffer, whereby a 20 μM test compound solution was prepared.
1) The test compound solution was added in an amount of 10 μL into each well of a 384-well plate, and then, 4×GS1 solution and 4×GR solution were added in an amount of 5 μL into each well, respectively.
2) The plate was incubated in a dark place at room temperature for 2 to 4 hours.
3) By using a multimode plate reader, Analyst™ HT (manufactured by LJL Biosystems), fluorescence polarization of each well was measured. As the blank, a well containing GR screening buffer in place of the test compound and 4×GS1 solution was used.
4) The same procedure as that in the above 1) to 3) was carried out except that GR screening buffer was used in place of the test compound solution, and the obtained result was taken as the negative control.
5) The same procedure as that in the above 1) to 3) was carried out except that 2 mM dexamethasone was used in place of the test compound solution, and the obtained result was taken as the positive control.
A GR binding ratio (%) was calculated from the following equation. GR binding ratio(%)=100×[1−(fluorescence polarization of test compound solution−fluorescence polarization of positive control solution)/(fluorescence polarization of negative control solution fluorescence polarization of positive control solution)] (Test Results and Discussion)

Turning to `COc1cc(OC(=O)c2cncnc2)ccc1-c1ccc2c(c1COC(=O)c1ccc(C)s1)C(C)=CC(C)(C)N2` [Compound 1-23, 6-[2-Methoxy-4-(pyrimidin-5-ylcarbonyloxy)phenyl]-5-(5-methylthiophen-2-ylcarbonyloxymethyl)-2,2,4-trimethyl-1,2-dihydroquinoline], the inhibition at 20 µM (stock) was 94%.
Then `COC(=O)c1cccc(C(=O)Oc2ccc(-c3ccc4c(c3COC(=O)c3ccc(C)s3)C(C)=CC(C)(C)N4)c(OC)c2)c1` [Compound 1-26, 6-[2-Methoxy-4-(3-methoxycarbonylbenzoyloxy)phenyl]-5-(5-methylthiophen-2-ylcarbonyloxymethyl)-2,2,4-trimethyl-1,2-dihydroquinoline], with 94%; and `COc1cc(OC(=O)c2ccco2)ccc1-c1ccc2c(c1COC(=O)c1ccc(Br)s1)C(C)=CC(C)(C)N2` [Compound 1-39, 5-(5-Bromothiophen-2-ylcarbonyloxymethyl)-6-[4-(furan-2-ylcarbonyloxy)-2-methoxyphenyl]-2,2,4-trimethyl-1,2-dihydroquinoline], with 100%.
To `COc1cc(OC(=O)c2sccc2Cl)ccc1-c1ccc2c(c1COC(=O)c1ccc(C)s1)C(C)=CC(C)(C)N2` [Compound 1-31, 6-[4-(3-Chlorothiophen-2-ylcarbonyloxy)-2-methoxyphenyl]-5-(5-methylthiophen-2-ylcarbonyloxymethyl)-2,2,4-trimethyl-1,2-dihydroquinoline] belongs 88%.
Then `COc1cc(OC(=O)c2ccoc2)ccc1-c1ccc2c(c1COC(=O)c1ccc(C)cc1)C(C)=CC(C)(C)N2` [Compound 1-3, 6-[4-(Furan-3-ylcarbonyloxy)-2-methoxyphenyl]-5-(4-methylbenzoyloxymethyl)-2,2,4-trimethyl-1,2-dihydroquinoline], with 100%; and `COc1ccc(C(=O)Oc2ccc(-c3ccc4c(c3COC(=O)c3ccc(C)s3)C(C)=CC(C)(C)N4)c(OC)c2)cc1` [Compound 1-22, 6-[2-Methoxy-4-(4-methoxybenzoyloxy)phenyl]-5-(5-methylthiophen-2-ylcarbonyloxymethyl)-2,2,4-trimethyl-1,2-dihydroquinoline], with 91%; and `COc1ccc(C(=O)OCc2c(-c3ccc(OC(=O)c4ccco4)cc3OC)ccc3c2C(C)=CC(C)(C)N3)cc1` [Compound 1-36, 6-[4-(Furan-2-ylcarbonyloxy)-2-methoxyphenyl]-5-(4-methoxybenzoyloxymethyl)-2,2,4-trimethyl-1,2-dihydroquinoline], with 100%.
Regarding `COc1cc(OC(=O)c2cccs2)ccc1-c1ccc2c(c1COC(=O)c1ccc(C)s1)C(C)=CC(C)(C)N2` [Compound 1-29, 6-[2-Methoxy-4-(thiophen-2-ylcarbonyloxy)phenyl]-5-(5-methylthiophen-2-ylcarbonyloxymethyl)-2,2,4-trimethyl-1,2-dihydroquinoline], the inhibition at 20 µM (stock) is 96%.
With `COc1ccccc1C(=O)Oc1ccc(-c2ccc3c(c2COC(=O)c2ccc(C)cc2)C(C)=CC(C)(C)N3)c(OC)c1` [Compound 1-7, 6-[2-Methoxy-4-(2-methoxybenzoyloxy)phenyl]-5-(4-methylbenzoyloxymethyl)-2,2,4-trimethyl-1,2-dihydroquinoline], the inhibition at 20 µM (stock) amounted to 100%.
To `COc1cc(OC(=O)c2cccnc2OC)ccc1-c1ccc2c(c1COC(=O)c1ccc(C)s1)C(C)=CC(C)(C)N2` [Compound 1-45, 6-[2-Methoxy-4-(2-methoxypyridin-3-ylcarbonyloxy)phenyl]-5-(5-methylthiophen-2-ylcarbonyloxymethyl)-2,2,4-trimethyl-1,2-dihydroquinoline] belongs 100%; to `COc1cc(OC(=O)c2cccc(C(C)=O)c2)ccc1-c1ccc2c(c1COC(=O)c1ccc(C)s1)C(C)=CC(C)(C)N2` [Compound 1-27, 6-[4-(3-Acetylbenzoyloxy)-2-methoxyphenyl]-5-(5-methylthiophen-2-ylcarbonyloxymethyl)-2,2,4-trimethyl-1,2-dihydroquinoline], 89%; to `COc1cc(OS(=O)(=O)CC(C)C)ccc1-c1ccc2c(c1COC(=O)c1ccc(C)s1)C(C)=CC(C)(C)N2` [Compound 2-3], 97%.
As for `COC(=O)Oc1ccc(-c2ccc3c(c2COC(=O)c2ccc(C)s2)C(C)=CC(C)(C)N3)c(OC)c1` [Compound 3-1, 6-(2-Methoxy-4-methoxycarbonyloxyphenyl)-5-(5-methylthiophen-2-ylcarbonyloxymethyl)-2,2,4-trimethyl-1,2-dihydroquinoline], the inhibition at 20 µM (stock) is 91%.
To `COc1cc(OC(=O)c2ccccc2Cl)ccc1-c1ccc2c(c1COC(=O)c1ccc(C)cc1)C(C)=CC(C)(C)N2` [Compound 1-6, 6-[4-(2-Chlorobenzoyloxy)-2-methoxyphenyl]-5-(4-methylbenzoyloxymethyl)-2,2,4-trimethyl-1,2-dihydroquinoline] belongs 100%; to `CCCC(=O)Oc1ccc(-c2ccc3c(c2COC(=O)c2ccc(C)s2)C(C)=CC(C)(C)N3)c(OC)c1` [Compound 1-11, 6-(4-Butyryloxy-2-methoxyphenyl)-5-(5-methylthiophen-2-ylcarbonyloxymethyl)-2,2,4-trimethyl-1,2-dihydroquinoline], 100%.
Then `COc1cc(OS(=O)(=O)C2CCCC2)ccc1-c1ccc2c(c1COC(=O)c1ccc(C)s1)C(C)=CC(C)(C)N2` [Compound 2-5, 6-(4-Cyclopentylsulfonyloxy-2-methoxyphenyl)-5-(5-methylthiophen-2-ylcarbonyloxymethyl)-2,2,4-trimethyl-1,2-dihydroquinoline], with 100%; and `CCCCS(=O)(=O)Oc1ccc(-c2ccc3c(c2COC(=O)c2ccc(C)s2)C(C)=CC(C)(C)N3)c(OC)c1` [Compound 2-8, 6-(4-Butylsulfonyloxy-2-methoxyphenyl)-5-(5-methylthiophen-2-ylcarbonyloxymethyl)-2,2,4-trimethyl-1,2-dihydroquinoline], with 100%; and `COc1ccc(C(=O)OCc2c(-c3ccc(OC(=O)c4cccnc4)cc3OC)ccc3c2C(C)=CC(C)(C)N3)cc1` [Compound 1-34, 5-(4-Methoxybenzoyloxymethyl)-6-[2-methoxy-4-(pyridin-3-ylcarbonyloxy)phenyl]-2,2,4-trimethyl-1,2-dihydroquinoline], with 95%.
To `COc1cc(OC(=O)c2ccccc2)ccc1-c1ccc2c(c1COC(=O)c1ccc(C)s1)C(C)=CC(C)(C)N2` [Compound 1-18, 6-(4-Benzoyloxy-2-methoxyphenyl)-5-(5-methylthiophen-2-ylcarbonyloxymethyl)-2,2,4-trimethyl-1,2-dihydroquinoline] belongs 91%; to `COc1cc(OC(=O)c2ccccc2F)ccc1-c1ccc2c(c1COC(=O)c1ccc(C)s1)C(C)=CC(C)(C)N2` [Compound 1-20, 6-[4-(2-Fluorobenzoyloxy)-2-methoxyphenyl]-5-(5-methylthiophen-2-ylcarbonyloxymethyl)-2,2,4-trimethyl-1,2-dihydroquinoline], 90%.
`COc1cc(OC(=O)c2cccnc2)ccc1-c1ccc2c(c1COC(=O)c1ccc(C)s1)C(C)=CC(C)(C)N2` [Compound 1-13, 6-[2-Methoxy-4-(pyridin-3-ylcarbonyloxy)phenyl]-5-(5-methylthiophen-2-ylcarbonyloxymethyl)-2,2,4-trimethyl-1,2-dihydroquinoline]: the inhibition at 20 µM (stock) was 96%.

Source of the values: patent US8563551B2, “Method for preventing or treating a disease related to the glucocorticoid receptor” (Santen Pharmaceutical Co., Ltd., priority 2006, dated 2013).
